Assay results from patent publication US20220119354A1, “DIAMINO-SUBSTITUTED PYRIDINES AND PYRIMIDINES AS HERBICIDES” (FMC Corporation, priority 2019, published 2022).

How the values were obtained:
Format in all cases: in vivo
[1] = system: pigweed (Amaranthus retroflexus); test: Test A preemergence, pigweed; conditions: 0 to 100 scale, 0 is no effect, 100 is complete control
How it was run: (§1)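 Greenhouse pot test, loam/sand soil. Pre: directed soil spray at planting; post: foliar spray at 1–2 leaf stage (2–10 cm). Chemical in non-phytotoxic solvent + surfactant. Visual rating ~10 d, 0 = no effect, 100 = complete control.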

[2] = system: ragweed (common ragweed, Ambrosia elatior); test: Test A postemergence, ragweed; conditions: 0 to 100 scale; for Plant response rating, Ragweed: 0 no effect, 100 complete control
How it was run: as §1

[3] = system: galium (catchweed bedstraw, Galium aparine); test: Test A postemergence, galium; conditions: 0 to 100 scale; for Plant response rating, Galium: 0 no effect, 100 complete control
How it was run: as §1

kochia (Kochia scoparia) [4] = test: Test A preemergence, kochia; conditions: 0 to 100 scale, 0 is no effect, 100 is complete control
How it was run: as §1

[5] = system: foxtail, giant (Setaria faberii); test: Test A postemergence, giant foxtail; conditions: 0 to 100 scale; for Plant response rating, Foxtail, Giant: 0 no effect, 100 complete control
How it was run: as §1

[6] = system: ducksalad (Heteranthera limosa); test: Test B flooded paddy test, ducksalad; conditions: Flood, 250 g ai/ha, applied to paddy water, 2-leaf stage, visual evaluation after 13 to 15 d
How it was run: (§2)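 Growth to two leaves preceded treatment. Flooding to 3 cm above soil surface, then water-applied compound; depth kept constant. Scored visually relative to controls after 13–15 d greenhouse; 100 means full control.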

kochia (Kochia scoparia) [7] = test: Test A postemergence, kochia; conditions: 0 to 100 scale; for Plant response rating, Kochia: 0 no effect, 100 complete control
How it was run: as §1

[8] = system: foxtail, giant (Setaria faberii); test: Test A preemergence, giant foxtail; conditions: 0 to 100 scale, 0 is no effect, 100 is complete control
How it was run: as §1

[9] = system: sedge, umbrella (small-flower umbrella sedge, Cyperus difformis); test: Test B flooded paddy test, umbrella sedge; conditions: Flood, 250 g ai/ha, applied to paddy water, 2-leaf stage, visual evaluation after 13 to 15 d
How it was run: as §2

[10] = system: barnyardgrass (Echinochloa crus-galli); test: Test B flooded paddy test, barnyardgrass; conditions: Flood, 250 g ai/ha, applied to paddy water, 2-leaf stage, visual evaluation after 13 to 15 d
How it was run: as §2

rice (Oryza sativa) = test: Test B flooded paddy test, rice; conditions: Flood, 250 g ai/ha, applied to paddy water, 2-leaf stage, visual evaluation after 13 to 15 d
How it was run: as §2

[11] = system: wheat (Triticum aestivum); test: Test A postemergence, wheat; conditions: 0 to 100 scale; for Plant response rating, Wheat: 0 no effect, 100 complete control
How it was run: as §1

corn (Zea mays) = test: Test A postemergence, corn; conditions: 0 to 100 scale; for Plant response rating, Corn: 0 no effect, 100 complete control
How it was run: as §1

[12] = system: barnyardgrass (Echinochloa crus-galli); test: Test A preemergence, barnyardgrass; conditions: 0 to 100 scale, 0 is no effect, 100 is complete control
How it was run: as §1

[13] = system: ryegrass, Italian (Lolium multiflorum); test: Test A postemergence, Italian ryegrass; conditions: 0 to 100 scale; for Plant response rating, Ryegrass, Italian: 0 no effect, 100 complete control
How it was run: as §1

[14] = system: blackgrass (Alopecurus myosuroides); test: Test A postemergence, blackgrass; conditions: 0 to 100 scale; for Plant response rating, Blackgrass: 0 no effect, 100 complete control
How it was run: as §1

[15] = system: barnyardgrass (Echinochloa crus-galli); test: Test A postemergence, barnyardgrass; conditions: 0 to 100 scale; for Plant response rating, Barnyardgrass: 0 no effect, 100 complete control
How it was run: as §1

[16] = system: pigweed (Amaranthus retroflexus); test: Test A postemergence, pigweed; conditions: 0 to 100 scale; for Plant response rating, Pigweed: 0 no effect, 100 complete control
How it was run: as §1

[17] = system: ragweed (common ragweed, Ambrosia elatior); test: Test A preemergence, ragweed; conditions: 0 to 100 scale, 0 is no effect, 100 is complete control
How it was run: as §1

[18] = system: ryegrass, Italian (Lolium multiflorum); test: Test A preemergence, Italian ryegrass; conditions: 0 to 100 scale, 0 is no effect, 100 is complete control
How it was run: as §1

[19] = 500 g ai/ha, 0 is no effect, 100 is complete control

CC(Nc1ncc(C(F)(F)F)c(N)n1)c1coc2cc(F)ccc12 (racemic) [Compound 51]
60: Ryegrass, Italian plant response rating ([18]; 125 g ai/ha)
0: Plant response rating, Ducksalad (0 to 100 scale, 0 is no effect, 100 is complete control) [6] | Plant response rating, Sedge, Umbrella (0 to 100 scale, 0 is no effect, 100 is complete control) [9] | Plant response rating, Barnyardgrass (0 to 100 scale, 0 is no effect, 100 is complete control) [10] | Plant response rating, Rice (0 to 100 scale, 0 is no effect, 100 is complete control) (rice (Oryza sativa)) | Plant response rating, Wheat ([11]; 125 g ai/ha) | Plant response rating, Corn (corn (Zea mays); 125 g ai/ha) | Plant response rating, Blackgrass ([14]; 125 g ai/ha) | Plant response rating, Barnyardgrass ([15]; 125 g ai/ha)
30: Wheat plant response rating [11, 19] | Plant response rating, Ryegrass, Italian ([13]; 125 g ai/ha)
80: Plant response rating, Kochia (kochia (Kochia scoparia) [7]; 125 g ai/ha) | Ryegrass, Italian plant response rating ([18]; 500 g ai/ha)
20: Plant response rating, Foxtail, Giant ([5]; 125 g ai/ha)
70: Plant response rating, Galium ([3]; 125 g ai/ha)
10: Foxtail, Giant plant response rating ([8]; 125 g ai/ha) | Corn plant response rating (corn (Zea mays); [19]) | Blackgrass plant response rating [14, 19]
50: Foxtail, Giant plant response rating [5, 19] | Ryegrass, Italian plant response rating [13, 19] | Barnyardgrass plant response rating [15, 19]
90: Pigweed plant response rating ([1]; 125 g ai/ha) | Plant response rating, Ragweed ([2]; 125 g ai/ha) | Galium plant response rating [3, 19] | Kochia plant response rating (kochia (Kochia scoparia) [4]; 125 g ai/ha) | Kochia plant response rating (kochia (Kochia scoparia) [7]; [19]) | Foxtail, Giant plant response rating ([8]; 500 g ai/ha)
100: Pigweed plant response rating ([1]; 500 g ai/ha) | Ragweed plant response rating [2, 19] | Kochia plant response rating (kochia (Kochia scoparia) [4]; 500 g ai/ha) | Barnyardgrass plant response rating ([12]; 500 g ai/ha) | Plant response rating, Pigweed ([16]; 125 g ai/ha) | Pigweed plant response rating [16, 19] | Ragweed plant response rating ([17]; 125 g ai/ha) | Ragweed plant response rating ([17]; 500 g ai/ha)
40: Barnyardgrass plant response rating ([12]; 125 g ai/ha)

C[C@@H](Nc1ncc(C(F)(F)F)c(N)n1)c1cc2ccccc2n1C [Compound 98]
50: Plant response rating, Galium ([3]; 125 g ai/ha) | Barnyardgrass plant response rating ([12]; 500 g ai/ha)
0: Pigweed plant response rating ([1]; 125 g ai/ha) | Kochia plant response rating (kochia (Kochia scoparia) [4]; 125 g ai/ha) | Kochia plant response rating (kochia (Kochia scoparia) [4]; 500 g ai/ha) | Plant response rating, Foxtail, Giant ([5]; 125 g ai/ha) | Plant response rating, Foxtail, Giant ([5]; 500 g ai/ha) | Plant response rating, Ducksalad (0 to 100 scale, 0 is no effect, 100 is complete control) [6] | Foxtail, Giant plant response rating ([8]; 125 g ai/ha) | Plant response rating, Sedge, Umbrella (0 to 100 scale, 0 is no effect, 100 is complete control) [9] | Plant response rating, Barnyardgrass (0 to 100 scale, 0 is no effect, 100 is complete control) [10] | Plant response rating, Rice (0 to 100 scale, 0 is no effect, 100 is complete control) (rice (Oryza sativa)) | Plant response rating, Wheat ([11]; 125 g ai/ha) | Plant response rating, Wheat ([11]; 500 g ai/ha) | Plant response rating, Corn (corn (Zea mays); 125 g ai/ha) | Plant response rating, Corn (corn (Zea mays); 500 g ai/ha) | Plant response rating, Ryegrass, Italian ([13]; 125 g ai/ha) | Plant response rating, Ryegrass, Italian ([13]; 500 g ai/ha) | Plant response rating, Blackgrass ([14]; 125 g ai/ha) | Plant response rating, Blackgrass ([14]; 500 g ai/ha) | Plant response rating, Barnyardgrass ([15]; 125 g ai/ha) | Plant response rating, Barnyardgrass ([15]; 500 g ai/ha)
30: Plant response rating, Ragweed ([2]; 125 g ai/ha)
80: Ragweed plant response rating ([17]; 500 g ai/ha)
70: Plant response rating, Galium ([3]; 500 g ai/ha)
20: Plant response rating, Kochia (kochia (Kochia scoparia) [7]; 125 g ai/ha) | Barnyardgrass plant response rating ([12]; 125 g ai/ha) | Ragweed plant response rating ([17]; 125 g ai/ha) | Ryegrass, Italian plant response rating ([18]; 125 g ai/ha)
40: Plant response rating, Kochia (kochia (Kochia scoparia) [7]; 500 g ai/ha) | Foxtail, Giant plant response rating ([8]; 500 g ai/ha) | Ryegrass, Italian plant response rating ([18]; 500 g ai/ha)
100: Pigweed plant response rating ([1]; 500 g ai/ha)
60: Plant response rating, Ragweed ([2]; 500 g ai/ha) | Plant response rating, Pigweed ([16]; 125 g ai/ha)
90: Plant response rating, Pigweed ([16]; 500 g ai/ha)
